The subject of series [1] is AMPKα. In words: Measurement of AMPK activation effect (AMPKα Thr172 phosphorylation immunoassay) in MCF7 cells. The format is cell-based, human. The conditions noted are these: 24 hours; for AMPK activation effect AC150: concentration at which AMPK activation reached 150%. A digest of the protocol: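 MCF7 cells in DMEM/10% FBS were treated 24 h with derivatives at 5, 10 and 50 μM (metformin hydrochloride control, 0.05–10 mM). AMPKα Thr172 phosphorylation was measured by immunoassay on 20 μg lysate. AC150 (concentration giving 150% activation) came from concentration–response curves, with activation also reported at fixed concentrations.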

The subject of series [2] is HCT116 cells. In words: Measurement of effect of inhibiting cancer cell proliferation (MTT). The series is classed as cell-based, human. The note with it: Homo sapiens; for inhibition at 100 µM: HCT-116, 100 μM, 48 hours, read-out: Cell Growth Inhibition (%) at 100 μM; for GI50: HCT-116, 48 h. The procedure, abridged:
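HCT116 cells (~5,000/well, DMEM with 10% FBS) treated 48 h with compound at 0.39–100 μM, metformin hydrochloride control at 0.1–25 mM. Viability by MTT (3 h, formazan in DMSO, A560) relative to untreated wells; GIC50 from the viability curve, also viability at 100 μM.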

Series [3] can be described thus: Solubility in water of hydrochloride and acetate salts. The series is classed as physicochemical. The note with it: content 5 mg/1 ml distilled water, room temperature. As to the method:
The solubilities in water of the hydrochlorides prepared in Examples 26, 27, 32, 33, 48, 49, 53 and 54, and the solubilities in water of the acetates prepared in Examples 70 to 77, were compared.
The experimental conditions and methods are described, as follows.
1) 1 ml of distilled water is added to a container including 5 mg of salt at room temperature.
2) The resulting mixture is stirred for 10 minutes, and then kept at room temperature for 1 hour.
3) Undissolved residual salt is recovered and weighed.
4) The ratio of the amount of the recovered salt and the amount of the dissolved salt is calculated.
5) Operations 1) to 4) are repeatedly performed with increasing amount (i.e., 10, 15, 20, 25 and 30 mg) of salt.
The experimental procedures were performed for each of the hydrochlorides of Examples 26, 27, 32, 33, 48, 49, 53 and 54 and the acetates of Examples 70 to 77. The comparative solubilities obtained using the hydrochlorides of Examples 26, 27, 32, 33, 48, 49, 53 and 54 and the acetates of Examples 70 to 77 are listed in the following Table 1.

The test system of series [4] is Snail. In words: EMT inhibitory effect by inhibition of Snail expression (immunoblotting) in MCF7 cells. The format is cell-based, human. The note with it: MCF7, 48 hours, untreated control = 100%. As to the method:
Cells undergoing EMT owing to various cytokines and growth factors can acquire motility and thus move a distance to form tumors in new tissues. Therefore, the metastasis of cancer cells can be inhibited by controlling expression of EMT-related transcription factors to hinder EMT. Based on these facts, the activities of biguanide derivatives that inhibit Snail expression, which is a transcription factor inducing EMT in the MCF7 cell line derived from human breast cancer, were measured and simple experimental methods are described, as follows.
MCF7 cells derived from human breast cancer (commercially available from Korean Cell Line Bank) were cultured in a DMEM medium supplemented with 10% (v/v) fetal bovine serum (commercially available from Gibco Life Technologies (US)), put into a 6-well plate so that the number of cultured cells could amount to approximately 5×10^5 cells per well, and then incubated in an incubator supplied with 5% CO2 (culture temperature: 37° C., pH: 7.0 to 7.4). The culture media were treated with phenformin hydrochloride and the compounds synthesized in the examples at contents of 1 μM and 10 μM, respectively, and then incubated for 48 hours. Metformin hydrochloride was used as the control, and the cells were treated with 1 mM and 10 mM metformin hydrochloride. After 48 hours, the cells were lysed in a cell lysis buffer containing 10 mM Tris HCl (pH7.4), 100 mM NaCl, 1 mM EDTA, 1 mM EGTA, 1 mM NaF, 20 mM Na4P2O7, 2 mM Na3VO4, 1% TritonX-100, 10% glycerol, 0.5% deoxycholate and 1 mM PMSF. Then, 25 μg of the cell lysate was electrophoresized in an SDS-PAGE gel, and then transferred to a […] membrane (commercially available from Amersham Life Science). The membrane reacted with rat monoclonal anti-human Snail (commercially available from Cell signaling Technology) or mouse monoclonal anti-β-actin (commercially available from Santa cruz Biotechnology), and unbound antibodies were removed. In this case, anti-β-actin was used as the antibody to ensure that the amount of proteins loaded into the SDS-PAGE gel is identical. The membrane was reacted again with a secondary antibody, anti-rat IgG (commercially available from Cell signaling Technology) or anti-mouse IgG (commercially available from Santa Cruz Biotechnology). Finally, the antibody bound to the membrane was detected using an ECL Plus system (commercially available from Amersham Life Science). Also, the expression level of Snail with respect to β-actin was analyzed using a Scion image analysis program. Here, when it was assumed that the expression level of the untreated control was 100%, the expression level of the Snail by treatment with the compounds synthesized in the examples was indicated as a percentage (%).
On the technique in general: In western blotting, separated proteins are transferred to a membrane and probed.

Series [5] relates to MCF7 cells (breast cancer stem cell, mammosphere). The series can be described thus: Measurement of effect of inhibiting mammosphere formation. The format is cell-based, human. The conditions noted are these: MCF7, 8 days; for Number of Mammospheres: size 50 um or more. An excerpt: The cancer stem cells refer to cancer cells that have self-regeneration or differentiation capacity which is characteristically innate to stem cells. Here, the cancer stem cells show resistance to conventional anticancer therapy and poor prognosis. Therefore, the biguanide derivative has an effect of inhibiting cancer recurrence by inhibiting formation and proliferation of cancer stem cells, especially, breast cancer stem cells (mammosphere). Accordingly, the effect of the biguanide derivative of inhibiting breast cancer stem cell (mammosphere) formation was measured in an MCF7 cell line derived from human breast cancer forming mammospheres, and simple experimental methods are described, as follows.
MCF7 cells derived from human breast cancer were cultured (culture temperature: 37° C., pH: 7.0 to 7.4) in a DMEM medium supplemented with 10% (v/v) fetal bovine serum (commercially available from Gibco Life Technologies (US)) so that the MCF7 cells could grow to approximately 80% confluency and used in an experiment to determine an ability to form mammospheres. After MCF7 cells were made to single cells and the number of cell was counted, MCF7 cells were put in to a 24-well plate at 2,000 cells/well. […] Also, a culture media for forming mammospheres was prepared so that a serum-free DMEM/F12 medium could include 2% B27 (commercially available from Invitrogen), 20 ng/ml EGF (commercially available from Sigma), 5 μg/ml insulin (commercially available from Sigma) and 1 μg/ml hydrocortisone (commercially available from Sigma). Cells were cultured in a CO2 incubator for 24 hours and treated with each of the compounds synthesized in the examples at contents of 0.1 μM, 1 μM, 5 μM and 10 μM. Then, the cultured cells were added to the culture media for forming mammospheres so that a final volume of the culture broth could be adjusted to 1 ml. The cells were treated with the same concentrations of phenformin hydrochloride as the control and cultured in a CO2 incubator for 8 days. Thereafter, the mammosphere-forming efficiency and size of the cells were observed. After 8 days, the number of mammospheres having a size of 50 um or more was determined to calculate the mammosphere-forming efficiency (MFE (%)). The MFE (%) is calculated according to the following Equation 1.
When the cells were cultured for 8 days, MFE (%) of the cells on a plate treated with the phenformin hydrochloride and the compounds synthesized in the examples was compared with MFE (%) of the cells on a plate that was not treated with the compounds. The results are listed as the mammosphere formation inhibition rate (%) in the following Table 4, and the mammosphere-forming efficiencies of the respective compounds are shown in FIG. 1.

Each structure is given as a SMILES string. Counter-ions that a name gives are not always drawn.

As a reminder, the melting point is the temperature, or range, at which the solid turns liquid. As usually defined, the inhibition is the drop in the measured response relative to a control, in per cent. A word on the GI50: it is the concentration giving 50% growth inhibition.

For `Cl.N=C(NC(=N)N1CCCC1)Nc1ccc(OC(F)(F)F)c(F)c1` [Example 53, N1-pyrrolidine-N5-(3-fluoro-4-trifluoromethoxy)phenyl biguanide hydrochloride], the melting point was in the range of 278 to 279 °C. In addition, in series [1] (relative to untreated cells), the “AMPK activation effect at 10 μM (%)” value is 315%. Besides, in series [1], the “AMPK activation effect AC150” value is 5.0 µM. In addition, in series [2], the inhibition at 100 µM worked out at 101% and the GI50 is 7.6 µM. The “Solubility in water (%), hydrochloride salt” value in series [3] was 20%.
As for `Cl.N=C(NC(=N)N1CCCCC1)Nc1ccc(OC(F)(F)F)c(F)c1` [Example 54, N1-piperidine-N5-(3-fluoro-4-trifluoromethoxy)phenyl biguanide hydrochloride], the melting point fell in the range of 262 to 263 °C. Besides, the “AMPK activation effect at 10 μM (%)” value in series [1] (relative to untreated cells) was 400%. In series [1], the “AMPK activation effect AC150” value came out at 0.5 µM. In addition, in series [2], the inhibition at 100 µM amounted to 96.4% and it took 4.5 µM to inhibit growth by half (GI50). Further, the “Solubility in water (%), hydrochloride salt” value in series [3] is reported as 20%.
Regarding `CN(C)C(=N)N=C(N)N` [Metformin hydrochloride, reference compound], the “Snail Expression Rate (%)” value in series [4] (1 mM) came out at 70.3%; in series [4] (10 mM), 13.6%. Further, the “AMPK activation effect at 50 μM (%)” value in series [1] (50 μM, relative to untreated cells) is on record as 130.0%. The “AMPK activation effect AC150” value in series [1] stood at 188.3 µM. Further, the inhibition at 100 µM in series [2] amounted to 1.8%.
`[H]/N=C(/N)N/C(=N/[H])NCCc1ccccc1` [Phenformin hydrochloride, reference compound]: the “Snail Expression Rate (%)” value is given as 117.6% in series [4] (1 μM) and 53.8% in series [4] (10 μM). The “MFE (%) (mammosphere-forming efficiency)” value in series [5] (0.1 μM) stood at 4.2%; in series [5] (1 μM), 3.9%; in series [5] (5 μM) it was 5.2%; in series [5] (10 μM) it was 5.8%. The “Number of Mammospheres” value in series [5] (0.1 μM) is given as 84 ± 2.8; in series [5] (1 μM), 79 ± 0.7; in series [5] (5 μM), 103 ± 1.4; in series [5] (10 μM), 116 ± 19.1. Further, the inhibition at 0.1 µM in series [5] (Homo sapiens, 192 h, 0.1 μM, vs untreated, read-out: Mammosphere formation inhibition rate (%)) came to 18.4%. The inhibition at 1 µM in series [5] (Homo sapiens, 192 h, 1 μM, vs untreated, read-out: Mammosphere formation inhibition rate (%)) was 23.8%. For the same molecule, the inhibition at 5 µM in series [5] (Homo sapiens, 192 h, 5 μM, vs untreated, read-out: Mammosphere formation inhibition rate (%)) came to 0%. Further, the inhibition at 10 µM in series [5] (Homo sapiens, 192 h, 10 μM, vs untreated, read-out: Mammosphere formation inhibition rate (%)) was -12.1%.

The values are drawn from patent US9540325B2, “N1-cyclic amine-N5-substituted phenyl biguanide derivatives, methods of preparing the same and pharmaceutical composition comprising the same” (Immunomet Therapeutics, Inc., priority 2011, dated 2017).
